Counter-ions that a name gives are not always drawn. Like-named read-outs stand apart in the source and are kept apart here.
Columns and labels:
Format in all cases: biochemical
[1] = biological target: T1, human JAK1 (a.a. 837-1142) (Homo sapiens, UniProt P23458); experiment: In vitro JAK kinase assay (HTRF, phosphorylation of a biotinylated peptide), JAK1; conditions: read-out: JAK1 IC50
T1 construct: human JAK1 (a.a. 837-1142); His tag (N); made in house; host or cells: insect cells (baculovirus)
Summary of the method: (§1)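 Kinase reactions ran at room temperature for 1 h with ATP matched per isoform (JAK1 90 μM, JAK2 30 μM, JAK3 3 μM). After an EDTA stop, the phosphorylated biotin-peptide was read by HTRF using Eu-Py20 and SA-APC after 40 min binding.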

TYK2 = TYK2 (Homo sapiens, UniProt P29597); experiment: TYK2 kinase inhibition (Table A1)
[2] = biological target: T2, human JAK3 (a.a. 781-1124) (Homo sapiens, UniProt P52333); experiment: In vitro JAK kinase assay (HTRF, phosphorylation of a biotinylated peptide), JAK3
T2 construct: JAK3 (a.a. 781-1124); His tag (N); made in house; host or cells: insect cells (baculovirus)
Summary of the method: as §1

[3] = biological target: T3, human JAK2 (a.a. 828-1132) (Homo sapiens, UniProt O60674); experiment: In vitro JAK kinase assay (HTRF, phosphorylation of a biotinylated peptide), JAK2
T3 construct: JAK2 (a.a. 828-1132); His tag (N); made in house; host or cells: insect cells (baculovirus)
Summary of the method: as §1

T3 sequence (O60674 828-1132): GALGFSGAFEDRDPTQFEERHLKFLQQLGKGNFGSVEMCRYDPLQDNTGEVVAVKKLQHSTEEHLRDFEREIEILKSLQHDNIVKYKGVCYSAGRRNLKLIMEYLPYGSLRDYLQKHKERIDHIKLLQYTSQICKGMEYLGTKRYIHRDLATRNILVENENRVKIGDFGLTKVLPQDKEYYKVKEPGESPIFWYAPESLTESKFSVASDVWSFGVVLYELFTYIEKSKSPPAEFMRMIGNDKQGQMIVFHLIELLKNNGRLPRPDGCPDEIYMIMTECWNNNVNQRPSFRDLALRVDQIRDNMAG
T2 sequence (P52333 781-1124): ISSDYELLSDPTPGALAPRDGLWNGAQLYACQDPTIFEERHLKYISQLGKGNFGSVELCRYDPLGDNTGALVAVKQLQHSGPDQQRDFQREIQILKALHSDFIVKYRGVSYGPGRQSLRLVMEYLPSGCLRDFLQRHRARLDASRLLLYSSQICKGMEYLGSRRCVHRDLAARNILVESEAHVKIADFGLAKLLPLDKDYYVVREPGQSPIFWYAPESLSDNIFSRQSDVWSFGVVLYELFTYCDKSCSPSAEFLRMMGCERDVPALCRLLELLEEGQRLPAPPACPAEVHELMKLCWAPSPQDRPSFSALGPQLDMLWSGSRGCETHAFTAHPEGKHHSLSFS
TYK2, sequence (P29597 whole entry): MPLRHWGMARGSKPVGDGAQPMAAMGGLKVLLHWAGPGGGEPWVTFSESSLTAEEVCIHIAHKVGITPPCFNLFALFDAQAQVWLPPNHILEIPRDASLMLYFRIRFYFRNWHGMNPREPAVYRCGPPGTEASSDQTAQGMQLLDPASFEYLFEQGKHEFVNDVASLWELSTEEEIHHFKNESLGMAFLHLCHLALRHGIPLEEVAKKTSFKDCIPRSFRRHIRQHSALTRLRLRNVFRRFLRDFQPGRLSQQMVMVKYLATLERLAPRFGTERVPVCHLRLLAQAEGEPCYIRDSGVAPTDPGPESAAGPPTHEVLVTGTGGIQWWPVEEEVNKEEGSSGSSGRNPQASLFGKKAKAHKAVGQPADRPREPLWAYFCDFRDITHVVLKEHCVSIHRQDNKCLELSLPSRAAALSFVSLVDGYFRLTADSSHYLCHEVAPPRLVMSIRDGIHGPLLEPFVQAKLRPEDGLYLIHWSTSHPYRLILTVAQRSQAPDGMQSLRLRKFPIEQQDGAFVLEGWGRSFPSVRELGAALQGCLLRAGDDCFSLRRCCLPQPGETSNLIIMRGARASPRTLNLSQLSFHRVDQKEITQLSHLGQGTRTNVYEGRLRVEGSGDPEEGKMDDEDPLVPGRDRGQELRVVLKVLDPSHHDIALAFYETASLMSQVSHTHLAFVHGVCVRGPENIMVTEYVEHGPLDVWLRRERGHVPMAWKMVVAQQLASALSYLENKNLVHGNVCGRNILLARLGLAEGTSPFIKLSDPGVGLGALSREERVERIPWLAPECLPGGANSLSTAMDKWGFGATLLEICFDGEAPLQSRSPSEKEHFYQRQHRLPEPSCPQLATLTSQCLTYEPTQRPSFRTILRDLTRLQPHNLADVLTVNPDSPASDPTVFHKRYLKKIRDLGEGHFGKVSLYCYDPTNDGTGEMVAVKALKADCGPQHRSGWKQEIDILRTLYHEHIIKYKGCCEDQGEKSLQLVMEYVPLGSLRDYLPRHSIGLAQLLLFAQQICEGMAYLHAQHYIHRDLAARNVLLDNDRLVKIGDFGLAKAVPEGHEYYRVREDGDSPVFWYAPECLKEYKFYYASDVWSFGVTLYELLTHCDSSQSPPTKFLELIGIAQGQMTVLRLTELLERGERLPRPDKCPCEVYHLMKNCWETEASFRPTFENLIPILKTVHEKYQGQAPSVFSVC
T1 sequence (P23458 849-1154): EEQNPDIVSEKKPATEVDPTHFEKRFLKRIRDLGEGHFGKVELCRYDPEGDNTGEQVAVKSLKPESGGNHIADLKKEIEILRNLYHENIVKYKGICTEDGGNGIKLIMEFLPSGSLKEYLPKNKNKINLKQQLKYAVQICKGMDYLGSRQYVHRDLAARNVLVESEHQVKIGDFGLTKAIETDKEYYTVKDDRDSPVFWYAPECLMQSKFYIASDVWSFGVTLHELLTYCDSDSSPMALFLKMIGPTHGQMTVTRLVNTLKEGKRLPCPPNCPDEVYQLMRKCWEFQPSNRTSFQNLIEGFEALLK

Structure (SMILES) | IC50 ([1]; Table D1) [nM] | IC50 (TYK2; Table D1) [nM] | IC50 ([2]; Table D1) [nM] | IC50 ([3]; Table D1) [nM] | IC50 [1] [nM] | IC50 (TYK2) [nM] | IC50 [2] [nM] | IC50 [3] [nM]
O=C(CC1CN(c2nncs2)C1)Nc1ccc2cc1CCc1cncc(c1)Nc1ncc(Cl)c(n1)N2 [Example D151, N-[6-Chloro-2,4,8,18,22-pentaazatetracyclo[14.3.1.1(3,7).1(9,13)]docosa-1(20),3(22),4,6,9(21),10,12,16,18-nonaen-12-yl]-2-[1-(1,3,4-thiadiazol-2-yl)azetidin-3-yl]acetamide tris(trifluoroacetate)] | 76 | > 200 | > 200 | > 200 | – | – | – | –
Cn1cc(CC(=O)Nc2ccc3cc2CCc2cccc(c2)Nc2ncc(Cl)c(n2)N3)c2ccccc21 [Example C37, N-[6-Chloro-2,4,8,22-tetraazatetracyclo[14.3.1.1(3,7).1(9,13)]docosa-1(20),3(22),4,6,9(21),10,12,16,18-nonaen-12-yl]-2-(1-methyl-1H-indol-3-yl)acetamide trifluoroacetate] | – | – | – | – | 496 | 581 | 2620 | 276
O=C(C[C@H]1CCCN(C(=O)Nc2ccccc2)C1)Nc1ccc2cc1CCc1cccc(c1)Nc1ncc(Cl)c(n1)N2 [Example D197, (3R)-3-(2-{[6-Chloro-2,4,8,22-tetraazatetracyclo[14.3.1.1(3,7).1(9,13)]docosa-1(20),3(22),4,6,9(21),10,12,16,18-nonaen-12-yl]amino}-2-oxoethyl)-N-phenylpiperidine-1-carboxamide trifluoroacetate] | 16 | 34 | 44 | 9 | – | – | – | –
O=c1[nH]c2cc3cc(c2o1)CCc1cccc(c1)Nc1ncc(Cl)c(n1)N3 [Example D184, 4-Chloro-18-oxa-2,6,8,20,25-pentaazapentacyclo[14.6.1.1(3,7).1(9,13).0(17,21)]pentacosa-1(23),3(25),4,6,9(24),10,12,16,21-nonaen-19-one] | 0.9 | 1.8 | 21 | 2.8 | – | – | – | –
O=C(Cc1cccs1)Nc1ccc2cc1CCc1cccc(c1)Nc1ncc(Cl)c(n1)N2 [Example C42, N-[6-Chloro-2,4,8,22-tetraazatetracyclo[14.3.1.1(3,7).1(9,13)]docosa-1(20),3(22),4,6,9(21),10,12,16,18-nonaen-12-yl]-2-(2-thienyl)acetamide trifluoroacetate] | – | – | – | – | 37 | 96 | 346 | 23
CN1c2cccc(c2)CCc2cncc(c2)Nc2nccc1n2 [Example D224, 8-Methyl-2,4,8,18,22-pentaazatetracyclo[14.3.1.1(3,7).1(9,13)]docosa-1(20),3(22),4,6,9(21),10,12,16,18-nonaene bis(trifluoroacetate)] | 300 | > 400 | > 400 | 126 | – | – | – | –
O=C(Cc1ccsc1)Nc1ccc2cc1CCc1cccc(c1)Nc1ncc(Cl)c(n1)N2 [Example C32, N-[6-Chloro-2,4,8,22-tetraazatetracyclo[14.3.1.1(3,7).1(9,13)]docosa-1(20),3(22),4,6,9(21),10,12,16,18-nonaen-12-yl]-2-(3-thienyl)acetamide trifluoroacetate] | – | – | – | – | 34 | 44 | 658 | 20

More lines, now with the values ahead:

IC50 ([1]; Table D1) [nM] | IC50 (TYK2; Table D1) [nM] | IC50 ([2]; Table D1) [nM] | IC50 ([3]; Table D1) [nM] | IC50 [1] [nM] | IC50 (TYK2) [nM] | IC50 [2] [nM] | IC50 [3] [nM] | Structure (SMILES)
150 | > 400 | > 400 | 265 | – | – | – | – | O=C(c1cnccn1)N1CCC(CCOc2ccc3cc2CCc2cncc(c2)Nc2ncc(Cl)c(n2)N3)CC1 [Example D177, 6-Chloro-12-{2-[1-(pyrazin-2-ylcarbonyl)piperidin-4-yl]ethoxy}-2,4,8,18,22-pentaazatetracyclo[14.3.1.1(3,7).1(9,13)]docosa-1(20),3(22),4,6,9(21),10,12,16,18-nonaene tris(trifluoroacetate)]
18 | 170 | > 1000 | 94 | – | – | – | – | O=C(CC1CN(C(=O)c2cn[nH]c2)C1)Nc1ccc2cc1CCc1cncc(c1)Nc1ncc(Cl)c(n1)N2 [Example D149, N-[6-Chloro-2,4,8,18,22-pentaazatetracyclo[14.3.1.1(3,7).1(9,13)]docosa-1(20),3(22),4,6,9(21),10,12,16,18-nonaen-12-yl]-2-[1-(1H-pyrazol-4-ylcarbonyl)azetidin-3-yl]acetamide bis(trifluoroacetate)]
52 | > 400 | > 400 | 217 | – | – | – | – | O=C(COc1ccc2cc1CCc1cncc(c1)Nc1ncc(Cl)c(n1)N2)N1CCN(c2ccccn2)CC1 [Example D231, 6-Chloro-12-[2-oxo-2-(4-pyridin-2-ylpiperazin-1-yl)ethoxy]-2,4,8,18,22-pentaazatetracyclo[14.3.1.1(3,7).1(9,13)]docosa-1(20),3(22),4,6,9(21),10,12,16,18-nonaene tris(trifluoroacetate)]
5.7 | 27 | 69 | 10 | – | – | – | – | O=C(C[C@@H]1CCCN(C(=O)Nc2ccccc2)C1)Nc1ccc2cc1CCc1cncc(c1)Nc1ncc(Cl)c(n1)N2 [Example D198, (3S)-3-(2-{[6-Chloro-2,4,8,18,22-pentaazatetracyclo[14.3.1.1(3,7).1(9,13)]docosa-1(20),3(22),4,6,9(21),10,12,16,18-nonaen-12-yl]amino}-2-oxoethyl)-N-phenylpiperidine-1-carboxamide bis(trifluoroacetate)]
23 | > 400 | > 400 | 130 | – | – | – | – | O=C(Nc1ccccc1F)N1CCC(CCOc2ccc3cc2CCc2cncc(c2)Nc2ncc(Cl)c(n2)N3)CC1 [Example D170, 4-(2-{[6-Chloro-2,4,8,18,22-pentaazatetracyclo[14.3.1.1(3,7).1(9,13)]docosa-1(20),3(22),4,6,9(21),10,12,16,18-nonaen-12-yl]oxy}ethyl)-N-(2-fluorophenyl)piperidine-1-carboxamide bis(trifluoroacetate)]
84 | > 400 | > 400 | 300 | – | – | – | – | N#CC1(C(=O)N2CCN(C(=O)COc3ccc4cc3CCc3cncc(c3)Nc3ncc(Cl)c(n3)N4)CC2)CC1 [Example D267, 1-{[4-({[6-Chloro-2,4,8,18,22-pentaazatetracyclo[14.3.1.1(3,7).1(9,13)]docosa-1(20),3(22),4,6,9(21),10,12,16,18-nonaen-12-yl]oxy}acetyl)piperazin-1-yl]carbonyl}cyclopropanecarbonitrile bis(trifluoroacetate)]
21 | 45 | 37 | 7.3 | – | – | – | – | CC(C)(C)NC(=O)N1CCN(c2ccc3cc2CCc2cccc(c2)Nc2ncc(Cl)c(n2)N3)CC1 [Example D84, N-(tert-Butyl)-4-[6-chloro-2,4,8,22-tetraazatetracyclo[14.3.1.1(3,7).1(9,13)]docosa-1(20),3(22),4,6,9(21),10,12,16,18-nonaen-12-yl]piperazine-1-carboxamide bis(trifluoroacetate)]
180 | > 400 | > 400 | > 400 | – | – | – | – | Clc1cnc2nc1Nc1ccc(OCC3CCNCC3)c(c1)CCc1cncc(c1)N2 [Example D225, 6-Chloro-12-(piperidin-4-ylmethoxy)-2,4,8,18,22-pentaazatetracyclo[14.3.1.1(3,7).1(9,13)]docosa-1(20),3(22),4,6,9(21),10,12,16,18-nonaene tris(trifluoroacetate)]

— patent US8871753B2, “Macrocyclic compounds and their use as kinase inhibitors” (Incyte Corporation, priority 2008, dated 2014)
